In US5288720A, “Angiotensin II receptor blocking 2,3,6 substituted quinazolinones” (American Cyanamid Company, priority 1993, dated 1994):

Tested on: ANGIOTENSIN II VASOPRESSOR RESPONSE
Test: AII Challenge: blockade of angiotensin II vasopressor response in conscious SHR
Format: in vivo, rat (Conscious Male Okamoto-Aoki SHR)
Conditions: SHR n=2
In short: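 Conscious male Okamoto-Aoki SHR (16-20 weeks, ~330 g) cannulated in aorta and vena cava under local procaine; angiotensin II (human) 0.05 and 0.1 ug/kg i.v. given before and at 30-300 min after test compound i.v., i.p. or orally. Rise in systolic pressure (mmHg) expressed as % blockade versus each rat's predose response.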

[1] = 3 mg/kg i.v., AII 0.05 mcg/kg IV, 30 min post dose
[2] = 3 mg/kg i.v., AII 0.05 mcg/kg IV, 60 min post dose
[3] = 3 mg/kg i.v., AII 0.05 mcg/kg IV, 90 min post dose
[4] = 3 mg/kg i.v., AII 0.05 mcg/kg IV, 120 min post dose
[5] = 3 mg/kg i.v., AII 0.05 mcg/kg IV, 180 min post dose
[6] = 3 mg/kg i.v., AII 0.05 mcg/kg IV, 240 min post dose
[7] = 3 mg/kg i.v., AII 0.05 mcg/kg IV, 300 min post dose
[8] = 3 mg/kg i.v., AII 0.1 mcg/kg IV, 30 min post dose
[9] = 3 mg/kg i.v., AII 0.1 mcg/kg IV, 60 min post dose
[10] = 3 mg/kg i.v., AII 0.1 mcg/kg IV, 90 min post dose
[11] = 3 mg/kg i.v., AII 0.1 mcg/kg IV, 120 min post dose
[12] = 3 mg/kg i.v., AII 0.1 mcg/kg IV, 180 min post dose
[13] = 3 mg/kg i.v., AII 0.1 mcg/kg IV, 240 min post dose
[14] = 3 mg/kg i.v., AII 0.1 mcg/kg IV, 300 min post dose
[15] = 3 mg/kg p.o., AII 0.05 mcg/kg IV, 30 min post dose
[16] = 3 mg/kg p.o., AII 0.05 mcg/kg IV, 60 min post dose
[17] = 3 mg/kg p.o., AII 0.05 mcg/kg IV, 90 min post dose
[18] = 3 mg/kg p.o., AII 0.05 mcg/kg IV, 120 min post dose
[19] = 3 mg/kg p.o., AII 0.05 mcg/kg IV, 180 min post dose
[20] = 3 mg/kg p.o., AII 0.05 mcg/kg IV, 240 min post dose
[21] = 3 mg/kg p.o., AII 0.1 mcg/kg IV, 30 min post dose
[22] = 3 mg/kg p.o., AII 0.1 mcg/kg IV, 60 min post dose
[23] = 3 mg/kg p.o., AII 0.1 mcg/kg IV, 90 min post dose
[24] = 3 mg/kg p.o., AII 0.1 mcg/kg IV, 120 min post dose
[25] = 3 mg/kg p.o., AII 0.1 mcg/kg IV, 180 min post dose
[26] = 3 mg/kg p.o., AII 0.1 mcg/kg IV, 240 min post dose

For `CCCCc1nc2ccc(C(OC)C3CCCO3)cc2c(=O)n1Cc1ccc(-c2ccccc2-c2nn[nH]n2)cc1` (single isomer, unassigned) [Example 24], the “% Inhibition of AII vasopressor response” value [1] was 100%, the “Average Change (systolic blood pressure response to AII)” value (“Average Change” for short) [1] was 0 mmHg and the “% Inhibition of AII vasopressor response” value [2] was 93%. For the same compound, the “Average Change” value [2] was 2.5 mmHg, the “% Inhibition of AII vasopressor response” value [3] was 93% and the “Average Change” value [3] was 2.5 mmHg. For the same compound, the “% Inhibition of AII vasopressor response” value [4] was 87%, the “Average Change” value [4] was 5 mmHg and the “% Inhibition of AII vasopressor response” value [5] was 80%. The “Average Change” value [5] was 7.5 mmHg, the “% Inhibition of AII vasopressor response” value [6] was 80% and the “Average Change” value [6] was 7.5 mmHg. For the same compound, the “% Inhibition of AII vasopressor response” value [7] was 83%, the “Average Change” value [7] was 6.5 mmHg and the “% Inhibition of AII vasopressor response” value [8] was 100%. For the same compound, the “Average Change” value [8] was 0 mmHg, the “% Inhibition of AII vasopressor response” value [9] was 87% and the “Average Change” value [9] was 5 mmHg. The “% Inhibition of AII vasopressor response” value [10] was 87%, the “Average Change” value [10] was 5 mmHg and the “% Inhibition of AII vasopressor response” value [11] was 100%. For the same compound, the “Average Change” value [11] was 0 mmHg, the “% Inhibition of AII vasopressor response” value [12] was 81% and the “Average Change” value [12] was 7.5 mmHg. The “% Inhibition of AII vasopressor response” value [13] was 62%, the “Average Change” value [13] was 15 mmHg and the “% Inhibition of AII vasopressor response” value [14] was 59%. The “Average Change” value [14] was 16 mmHg, the “% Inhibition of AII vasopressor response” value [15] was 64% and the “Average Change” value [15] was 17.5 mmHg. For the same compound, the “% Inhibition of AII vasopressor response” value [16] was 54%, the “Average Change” value [16] was 22.5 mmHg and the “% Inhibition of AII vasopressor response” value [17] was 48%. The “Average Change” value [17] was 25 mmHg, the “% Inhibition of AII vasopressor response” value [18] was 54% and the “Average Change” value [18] was 22.5 mmHg. The “% Inhibition of AII vasopressor response” value [19] was 20%, the “Average Change” value [19] was 39 mmHg and the “% Inhibition of AII vasopressor response” value [20] was 12%. The “Average Change” value [20] was 42.5 mmHg, the “% Inhibition of AII vasopressor response” value [21] was 57% and the “Average Change” value [21] was 22.5 mmHg. For the same compound, the “% Inhibition of AII vasopressor response” value [22] was 38%, the “Average Change” value [22] was 32.5 mmHg and the “% Inhibition of AII vasopressor response” value [23] was 33%. The “Average Change” value [23] was 35 mmHg, the “% Inhibition of AII vasopressor response” value [24] was 29% and the “Average Change” value [24] was 37.5 mmHg. For the same compound, the “% Inhibition of AII vasopressor response” value [25] was 29%, the “Average Change” value [25] was 37.5 mmHg and the “% Inhibition of AII vasopressor response” value [26] was 24%. The “Average Change” value [26] was 40 mmHg.

For `CCCCc1nc2ccc(C(OC)C3CCCO3)cc2c(=O)n1Cc1ccc(-c2ccccc2-c2nn[nH]n2)cc1` (single isomer, unassigned; isomer 1) [Example 23, 2-Butyl-6-[methoxy(tetrahydro-2-furanyl)methyl-3-[[2'-(1H-tetrazol-5-yl)[1,1'-biphenyl]-4-yl]-methyl]-4(3e,uns/H/ )-quinazolinone isomer 1], the “% Inhibition of AII vasopressor response” value [1] was 97%, the “Average Change” value [1] was 1 mmHg and the “% Inhibition of AII vasopressor response” value [2] was 93%. The “Average Change” value [2] was 2.5 mmHg, the “% Inhibition of AII vasopressor response” value [3] was 79% and the “Average Change” value [3] was 7.5 mmHg. The “% Inhibition of AII vasopressor response” value [4] was 79%, the “Average Change” value [4] was 7.5 mmHg and the “% Inhibition of AII vasopressor response” value [5] was 79%. The “Average Change” value [5] was 7.5 mmHg, the “% Inhibition of AII vasopressor response” value [6] was 60% and the “Average Change” value [6] was 14 mmHg. For the same compound, the “% Inhibition of AII vasopressor response” value [7] was 50%, the “Average Change” value [7] was 17.5 mmHg and the “% Inhibition of AII vasopressor response” value [8] was 96%. For the same compound, the “Average Change” value [8] was 1.5 mmHg, the “% Inhibition of AII vasopressor response” value [9] was 84% and the “Average Change” value [9] was 6.5 mmHg. For the same compound, the “% Inhibition of AII vasopressor response” value [10] was 79%, the “Average Change” value [10] was 8.5 mmHg and the “% Inhibition of AII vasopressor response” value [11] was 81%. The “Average Change” value [11] was 7.5 mmHg, the “% Inhibition of AII vasopressor response” value [12] was 75% and the “Average Change” value [12] was 10 mmHg. The “% Inhibition of AII vasopressor response” value [13] was 50%, the “Average Change” value [13] was 20 mmHg and the “% Inhibition of AII vasopressor response” value [14] was 50%. For the same compound, the “Average Change” value [14] was 20 mmHg, the “% Inhibition of AII vasopressor response” value [15] was 58% and the “Average Change” value [15] was 20 mmHg. The “% Inhibition of AII vasopressor response” value [16] was 21%, the “Average Change” value [16] was 37.5 mmHg and the “% Inhibition of AII vasopressor response” value [17] was 37%. The “Average Change” value [17] was 30 mmHg, the “% Inhibition of AII vasopressor response” value [18] was 47% and the “Average Change” value [18] was 25 mmHg. For the same compound, the “% Inhibition of AII vasopressor response” value [19] was 21%, the “Average Change” value [19] was 37.5 mmHg and the “% Inhibition of AII vasopressor response” value [21] was 18%. For the same compound, the “Average Change” value [21] was 45 mmHg, the “% Inhibition of AII vasopressor response” value [22] was 14% and the “Average Change” value [22] was 47.5 mmHg. The “% Inhibition of AII vasopressor response” value [23] was 32%, the “Average Change” value [23] was 37.5 mmHg and the “% Inhibition of AII vasopressor response” value [24] was 36%. The “Average Change” value [24] was 35 mmHg and the “% Inhibition of AII vasopressor response” value [25] was 9%.
